Consider two molecules from US9012159B2, “Cell based screening assays for the triglyceride synthesis pathway” (Janssen Research & Development, LLC, priority 2009, dated 2015).

Assay [1] has as its system HUH7 cells. Nature of the assay: Stable isotope (13C18-oleic acid) labeling of triglyceride synthesis with LC-MS detection in HUH7 cells. Format: cell-based, human. As to conditions: for levels of 13C18-triolein relative to those of the control: 10 μM compound, about 90 minutes with 13C18-oleic acid, % of control (FIG. 3). As for the experimental part:
(§1) The 3T3-L1 mouse preadipocyte cells were maintained in Dulbecco's Modified Eagles Medium (DMEM) with 10% fetal bovine serum (FBS). Cells were seeded in 96-well plates. Two days post confluency, the medium was changed to induction medium with IBMX, insulin, and dexamethasone (Adipolysis kit, Cayman Chemical Company). Three days after induction, the medium was changed to insulin medium (Adipolysis kit, Cayman Chemical Company). Five days after induction, the medium was replaced with fresh insulin medium for 2 days. Human hepatoma cell line HUH7 was maintained in DMEM with 10% FBS, 4.5 g/L D-glucose. Rat hepatoma cell line FU5AH was maintained in Minimum Essential Medium Eagle (MEM) with 5% FBS. The hepatoma cells were plated in 96 well plates and used at 80% confluence. Human breast cancer cell line MCF7 cells were maintained in DMEM with 10% FBS, 4.5 g/L D-glucose. Human monocytic leukemia cell line THP-1 was maintained in RPMI medium with 10% FBS and used at 5×10^5 cells/ml.
The HUH7 cells or the differentiated 3T3-L1 cells were incubated with DMEM with 10% charcoal-stripped FBS (Gibco) in 5% CO2 at 37° C. for overnight. The FU5AH cells were incubated with MEM with 5% charcoal-stripped FBS in 5% CO2 at 37° C. for overnight. About 100 μl of 300 μM ^13C18-oleic acid (SIGMA) precomplexed with 0.5% fatty acid free BSA (SIGMA) were added to the cell suspension in 5% CO2 at 37° C. for 0, 30, 60, 120 and 180 minutes. Then the cells were washed once with phosphate buffered saline and extracted with 100 μl of isopropyl alcohol. After incubating at room temperature for 10 minutes, the extraction was transferred to a glass vial and detected for labeled lipid molecules using the LC-MS system.
The LC-MS detection was conducted with Agilent 1100 Liquid Chromatographic system (Agilent Technologies, Palo Alto, Calif.) interfaced with a Micromass triple-quadrupole Quattro Micro mass spectrophotometer (Waters, Milford, Mass.) through a Z-spray electrospray ion source (ESI). Separation of the metabolites was performed on an Eclipse XDB-C8 column (2.1×50 mm, particle size=3.5 μm). Mobile Phase A, 50 mM ammonium formate in isopropanol-water (3:7), and mobile phase B, 10 mM ammonium formate in isopropanol-water (9:1) were used for a gradient elution as following: 20-100% Mobile Phase B for 1 min, hold 100% Mobile Phase B for 4 min, return to 20% Mobile Phase B for 0.1 min, then post run time of 4.5 min. The flow rate was 0.5 ml/min. […]
(§2) For evaluating compounds which modulate activity of DGAT1 or DGAT2, HUH7 or 3T3-L1 cells were preincubated with about 0, 0.03, 0.1, 0.3, 1, 3, or 10 μM Compounds 1 or 2 for about 10 minutes at 37° C. in 100 μl serum free medium with 0.05% DMSO. […] After incubation at 37° C. for about 90 minutes, cells were extracted and detected as described in Example 2.

Assay [2] deals with MCF7 cells. Nature of the assay: Stable isotope (13C18-oleic acid) labeling of triglyceride synthesis with LC-MS detection in MCF7 cells. It is filed as cell-based, human. As to conditions: compound 0.1-10 μM (concentration of the result not stated), about 3 hours with 13C18-oleic acid, % of control (FIG. 6). As for the experimental part: as §1
The LC-MS detection was conducted with Agilent 1100 Liquid Chromatographic system (Agilent Technologies, Palo Alto, Calif.) interfaced with a Micromass triple-quadrupole Quattro Micro mass spectrophotometer (Waters, Milford, Mass.) through a Z-spray electrospray ion source (ESI). […]
Next, the effects of Compound 2 in MCF7 cells were evaluated. […]

For assay [3], the system named is differentiated 3T3-L1 cells. Nature of the assay: Stable isotope (13C18-oleic acid) labeling of triglyceride synthesis with LC-MS detection in differentiated 3T3-L1 cells. As to conditions: differentiated 3T3-L1 cell line. Format: cell-based, mouse. As to the method:
as §1, with “The hepatoma cells were plated in 96 well plates and used at 80% confluence. Human breast cancer cell line MCF7 cells were maintained in DMEM with 10% FBS, 4.5 g/L D-glucose. Human monocytic leukemia cell line THP-1 was maintained in RPMI medium with 10% FBS and used at 5×10^5 cells/ml.” left out
The HUH7 cells or the differentiated 3T3-L1 cells were incubated with DMEM with 10% charcoal-stripped FBS (Gibco) in 5% CO2 at 37° C. for overnight. […] After incubating at room temperature for 10 minutes, the extraction was transferred to a glass vial and detected for labeled lipid molecules using the LC-MS system. […]
as §2

For `COC(=O)c1[nH]c(=S)n(C(c2ccc(Cl)c(Cl)c2)C2CCCCC2)c1C(=O)OC` (stereo not shown) [Compound 2, dimethyl 1-[cyclohexyl(3,4-dichlorophenyl)methyl]-2-thioxo-2,3-dihydro-1H-imidazole-4,5-dicarboxylate], the “levels of 13C18-triolein relative to those of the control” value in assay [1] (HUH7 cell line) is “about 75%”; in assay [2], “about 80%”.
Regarding `COc1ccc(CC(=O)Nc2ccc(N3CCN(C(=O)Nc4c(Cl)cc(CN5CCCC5)cc4Cl)CC3)cc2)cc1` [Compound 1, N-[2,6-Dichloro-4-(pyrrolidin-1-ylmethyl)phenyl]-4-(4-{[(4-methoxyphenyl)acetyl]amino}phenyl)piperazine-1-carboxamide], the “levels of 13C18-triolein relative to those of the control” value in assay [3] (about 10 μM compound, about 90 minutes with 13C18-oleic acid, % of control (FIG. 4)) is on record as “about 33%”; in assay [1] (HUH7 cell line) it was “about 30%”. Further, the “levels of the newly synthesized 13C18-triolein in the presence of compound” value in assay [3] (result in words) is on record as “reduced levels”; in assay [1] (HUH7 cell line, result in words), “reduced levels”. Besides, the 13C18-oleoyl-diglyceride level result in assay [1] (HUH7 cells incubated with compound (FIG. 5), result in words) is on record as “transient increase”.
